Results as given in ChEMBL document CHEMBL4376896, “Synthesis of Novel Potent Archazolids: Pharmacology of an Emerging Class of Anticancer Drugs” (J Med Chem, 2020).
In brackets after ≈: the same amount, converted by molar mass. Activity calls are given as the source filed them. The calls are words filed in the database; no cut-off is given here.

Experiments:
[1] = Intrinsic clearance in human liver microsomes at 1 uM; format: ADME, Microsome; details: read-out: CLH
[2] = Stability in human liver microsomes assessed as drug degradation at 1 uM measured within 15 mins; format: ADME, Microsome; details: read-out: Drug degradation
[3] = Half life in CD1 mouse liver microsomes at 1 uM; format: ADME, Microsome
[4] = target: Procathepsin L (Homo sapiens) (UniProt P07711); experiment: Inhibition of cathepsin L (unknown origin) assessed as reduction in pNA release using chromogenic Z-Phe-Arg-pNA substrate measured over 1 hr by spectrophotometry
Sequence of Procathepsin L (Homo sapiens) (P07711 114-333 limits assumed): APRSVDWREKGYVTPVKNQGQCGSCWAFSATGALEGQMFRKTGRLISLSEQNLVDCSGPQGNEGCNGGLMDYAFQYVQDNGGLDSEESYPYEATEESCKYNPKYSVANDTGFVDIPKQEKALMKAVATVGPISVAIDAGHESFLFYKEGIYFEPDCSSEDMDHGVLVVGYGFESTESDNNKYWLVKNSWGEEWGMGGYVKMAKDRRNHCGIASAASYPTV

Cytochrome P450 2B6 = Cytochrome P450 2B6 (Homo sapiens, UniProt P20813); experiment: Inhibition of recombinant human CYP2B6 at 100 nM; format: ADME; details: recombinant enzyme, 0.1 µM
Sequence of Cytochrome P450 2B6 (P20813 whole entry): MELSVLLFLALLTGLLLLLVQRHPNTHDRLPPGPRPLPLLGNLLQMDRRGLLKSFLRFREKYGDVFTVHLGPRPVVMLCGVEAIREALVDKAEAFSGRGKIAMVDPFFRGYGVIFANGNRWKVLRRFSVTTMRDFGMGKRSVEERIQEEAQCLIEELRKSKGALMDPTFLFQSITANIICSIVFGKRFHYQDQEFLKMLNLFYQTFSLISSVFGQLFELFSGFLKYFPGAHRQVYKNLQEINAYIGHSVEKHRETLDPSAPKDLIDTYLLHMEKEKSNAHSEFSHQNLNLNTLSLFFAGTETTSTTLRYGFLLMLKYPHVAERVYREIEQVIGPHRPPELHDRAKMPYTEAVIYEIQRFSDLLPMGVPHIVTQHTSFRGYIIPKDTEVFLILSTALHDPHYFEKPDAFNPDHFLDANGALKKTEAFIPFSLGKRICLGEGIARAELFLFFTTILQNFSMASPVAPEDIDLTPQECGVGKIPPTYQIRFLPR

Adenosine receptor A3 = target: T1, Adenosine receptor A3 (Homo sapiens, UniProt P0DMS8); experiment: Displacement of [3H]PSB-11 from human A3 adenosine receptor expressed in CHO cell membranes incubated for 60 mins by liquid scintillation counting method
T1 sequence (P0DMS8 whole entry): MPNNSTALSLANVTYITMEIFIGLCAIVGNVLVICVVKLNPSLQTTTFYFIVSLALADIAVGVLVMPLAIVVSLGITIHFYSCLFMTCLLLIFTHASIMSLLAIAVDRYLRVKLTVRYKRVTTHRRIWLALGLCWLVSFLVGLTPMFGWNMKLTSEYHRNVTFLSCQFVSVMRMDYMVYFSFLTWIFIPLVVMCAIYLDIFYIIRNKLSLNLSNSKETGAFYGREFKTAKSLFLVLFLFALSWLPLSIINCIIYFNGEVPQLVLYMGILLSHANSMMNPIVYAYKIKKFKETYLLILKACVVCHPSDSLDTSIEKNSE

[5] = Permeability in human Caco2 cells at 10 uM; format: ADME, cell-based; details: caco-2, 10 µM
[6] = Intrinsic clearance in Sprague-Dawley rat liver microsomes at 1 uM; format: ADME, Microsome; details: read-out: CLH
[7] = target: P2X purinoceptor 3 (Homo sapiens) (UniProt P56373); experiment: Inhibition of human P2X3 expressed in human 1321N1 cell membranes assessed as reduction in ATP-induced inhibition of [35S]ATPgammaS binding at 1 pm to 10 mM
Neutrophil elastase = target: T2, Neutrophil elastase (Homo sapiens, UniProt P08246); experiment: Inhibition of human leukocyte elastase assessed as reduction in pNA release using chromogenic MeO-Suc-Ala-Ala-Pro-Val-pNA substrate measured over 10 mins by spectrophotometry; details: read-out: IC50
T2 sequence (P08246 whole entry): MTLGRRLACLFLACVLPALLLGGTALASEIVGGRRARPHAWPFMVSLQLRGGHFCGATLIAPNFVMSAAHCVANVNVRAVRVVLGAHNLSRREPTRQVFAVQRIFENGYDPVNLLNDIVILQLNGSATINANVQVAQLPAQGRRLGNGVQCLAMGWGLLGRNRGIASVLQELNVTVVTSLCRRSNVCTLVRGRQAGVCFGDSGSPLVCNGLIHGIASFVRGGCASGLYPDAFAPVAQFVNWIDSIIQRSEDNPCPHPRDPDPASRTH

[8] = target: Chymotrypsin (Homo sapiens) (UniProt Q99895+P17538+P40313+Q6GPI1); experiment: Inhibition of chymotrypsin (unknown origin) assessed as reduction in pNA release using chromogenic Suc-Ala-Ala-Pro-Phe-pNA substrate measured over 12.5 mins by spectrophotometry; format: protein assay
Cytochrome P450 2D6 = Cytochrome P450 2D6 (Homo sapiens, UniProt P10635); experiment: Inhibition of recombinant human CYP2D6 at 100 nM; format: ADME; details: recombinant enzyme, 0.1 µM
Sequence of Cytochrome P450 2D6 (P10635 whole entry): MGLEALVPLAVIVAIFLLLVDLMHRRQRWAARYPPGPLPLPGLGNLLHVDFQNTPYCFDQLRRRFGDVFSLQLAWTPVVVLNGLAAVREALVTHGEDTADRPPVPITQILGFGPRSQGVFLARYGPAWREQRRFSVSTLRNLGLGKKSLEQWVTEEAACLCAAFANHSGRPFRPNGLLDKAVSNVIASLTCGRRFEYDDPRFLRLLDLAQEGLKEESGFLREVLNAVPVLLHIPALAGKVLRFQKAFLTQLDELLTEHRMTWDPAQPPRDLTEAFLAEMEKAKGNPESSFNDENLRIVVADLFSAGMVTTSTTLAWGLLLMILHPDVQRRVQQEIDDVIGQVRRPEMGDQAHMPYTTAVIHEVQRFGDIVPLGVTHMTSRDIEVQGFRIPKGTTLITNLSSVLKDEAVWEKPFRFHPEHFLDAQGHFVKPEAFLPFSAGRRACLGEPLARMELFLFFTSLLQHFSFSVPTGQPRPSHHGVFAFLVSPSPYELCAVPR

cells = details: Homo sapiens, 1321-N1, 72 h
Description: Growth inhibition of human 1321N1 cells incubated for 72 hrs by MTT assay

[9] = target: Cathepsin B (Homo sapiens) (UniProt P07858); experiment: Inhibition of cathepsin B (unknown origin) assessed as reduction in pNA release using chromogenic Z-Arg-Arg-pNA substrate measured over 1 hr by spectrophotometry
[10] = Kinetic aqueous solubility of the compound; format: physicochemical; details: buffer; read-out: Kinetic_solubility
[11] = Stability in CD1 mouse liver microsomes assessed as drug degradation at 1 uM measured within 15 mins; format: ADME, Microsome; details: read-out: Drug degradation
[12] = Half life in human liver microsomes at 1 uM; format: ADME, Microsome
Cytochrome P450 1A2 = Cytochrome P450 1A2 (Homo sapiens, UniProt P05177); experiment: Inhibition of recombinant human CYP1A2 at 100 nM; format: ADME; details: recombinant enzyme, 0.1 µM
Sequence of Cytochrome P450 1A2 (P05177 whole entry): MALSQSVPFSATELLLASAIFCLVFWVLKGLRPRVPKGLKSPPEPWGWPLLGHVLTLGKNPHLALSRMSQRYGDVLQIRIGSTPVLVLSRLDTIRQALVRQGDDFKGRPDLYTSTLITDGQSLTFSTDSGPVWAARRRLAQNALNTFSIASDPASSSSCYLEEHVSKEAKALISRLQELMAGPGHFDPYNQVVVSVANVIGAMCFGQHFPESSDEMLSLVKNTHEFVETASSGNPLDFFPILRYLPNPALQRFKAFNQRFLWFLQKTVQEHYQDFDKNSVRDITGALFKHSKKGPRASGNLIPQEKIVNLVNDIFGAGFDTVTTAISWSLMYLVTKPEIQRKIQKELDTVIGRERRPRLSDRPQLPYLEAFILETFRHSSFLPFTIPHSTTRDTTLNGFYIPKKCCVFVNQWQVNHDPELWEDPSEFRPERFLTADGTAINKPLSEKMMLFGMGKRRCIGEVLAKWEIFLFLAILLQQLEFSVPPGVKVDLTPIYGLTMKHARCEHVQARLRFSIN

[13] = Half life in Sprague-Dawley rat liver microsomes at 1 uM; format: ADME, Microsome
Cytochrome P450 2C9 [14] = target: T3, Cytochrome P450 2C9 (Homo sapiens, UniProt P11712); experiment: Inhibition of recombinant human CYP2C9 at 1 uM; format: ADME; details: recombinant enzyme
T3 sequence (P11712 whole entry): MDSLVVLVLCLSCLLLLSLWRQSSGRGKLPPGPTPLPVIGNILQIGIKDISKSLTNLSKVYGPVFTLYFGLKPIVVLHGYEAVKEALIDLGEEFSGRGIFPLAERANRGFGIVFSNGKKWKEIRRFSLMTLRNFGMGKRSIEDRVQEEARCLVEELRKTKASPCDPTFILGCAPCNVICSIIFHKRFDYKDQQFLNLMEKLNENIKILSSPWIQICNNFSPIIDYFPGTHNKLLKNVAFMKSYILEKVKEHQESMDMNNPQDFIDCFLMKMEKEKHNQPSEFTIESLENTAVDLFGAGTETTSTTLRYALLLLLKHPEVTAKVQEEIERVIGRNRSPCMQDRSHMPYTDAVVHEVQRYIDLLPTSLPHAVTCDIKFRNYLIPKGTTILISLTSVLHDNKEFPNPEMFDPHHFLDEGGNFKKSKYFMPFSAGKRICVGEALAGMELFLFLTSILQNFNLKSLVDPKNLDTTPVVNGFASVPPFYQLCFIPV

Cytochrome P450 2C19 [15] = target: T4, Cytochrome P450 2C19 (Homo sapiens, UniProt P33261); experiment: Inhibition of recombinant human CYP2C19 at 100 nM; format: ADME; details: recombinant enzyme, 0.1 µM
T4 sequence (P33261 whole entry): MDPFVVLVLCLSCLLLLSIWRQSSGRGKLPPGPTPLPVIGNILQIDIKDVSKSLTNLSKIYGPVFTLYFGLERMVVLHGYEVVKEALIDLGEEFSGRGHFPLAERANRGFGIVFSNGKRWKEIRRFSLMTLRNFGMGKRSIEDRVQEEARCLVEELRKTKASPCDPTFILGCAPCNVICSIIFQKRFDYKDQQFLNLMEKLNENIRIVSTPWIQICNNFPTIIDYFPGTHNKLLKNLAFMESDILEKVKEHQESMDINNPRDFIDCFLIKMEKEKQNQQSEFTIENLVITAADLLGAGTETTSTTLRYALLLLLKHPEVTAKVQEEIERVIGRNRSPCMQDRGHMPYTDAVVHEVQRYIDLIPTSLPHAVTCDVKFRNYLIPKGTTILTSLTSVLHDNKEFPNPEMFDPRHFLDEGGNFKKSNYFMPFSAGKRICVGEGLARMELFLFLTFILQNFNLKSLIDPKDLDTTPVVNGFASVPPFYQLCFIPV

Trypsin (Homo sapiens) = Trypsin (Homo sapiens) (UniProt P07477+P07478+P35030); experiment: Inhibition of trypsin (unknown origin) assessed as reduction in pNA release using chromogenic Suc-Ala-Ala-Pro-Arg-pNA substrate measured over 10 mins by spectrophotometry; format: protein assay
[16] = Stability in Sprague-Dawley rat liver microsomes assessed as drug degradation at 1 uM measured within 15 mins; format: ADME, Microsome; details: read-out: Drug degradation
Cytochrome P450 3A4 [17] = target: T5, Cytochrome P450 3A4 (Homo sapiens, UniProt P08684); experiment: Inhibition of recombinant human CYP3A4 at 1 uM; format: ADME; details: recombinant enzyme
T5 sequence (P08684 whole entry): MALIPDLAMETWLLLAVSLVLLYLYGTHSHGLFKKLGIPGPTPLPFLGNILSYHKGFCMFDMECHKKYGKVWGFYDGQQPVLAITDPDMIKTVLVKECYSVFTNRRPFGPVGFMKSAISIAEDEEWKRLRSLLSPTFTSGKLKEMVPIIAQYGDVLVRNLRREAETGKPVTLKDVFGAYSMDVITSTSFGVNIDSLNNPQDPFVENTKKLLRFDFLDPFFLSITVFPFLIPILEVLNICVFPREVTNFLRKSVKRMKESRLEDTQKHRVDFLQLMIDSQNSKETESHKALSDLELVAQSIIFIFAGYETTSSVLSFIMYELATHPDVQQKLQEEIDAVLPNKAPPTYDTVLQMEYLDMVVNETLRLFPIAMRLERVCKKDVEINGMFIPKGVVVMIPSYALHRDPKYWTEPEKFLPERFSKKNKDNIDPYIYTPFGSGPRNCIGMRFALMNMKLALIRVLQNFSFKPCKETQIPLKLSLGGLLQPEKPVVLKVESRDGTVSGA

Cytochrome P450 2C9 [18] = target: T3, Cytochrome P450 2C9; experiment: Inhibition of recombinant human CYP2C9 at 100 nM; format: ADME; details: recombinant enzyme, 0.1 µM
[19] = Intrinsic clearance in CD1 mouse liver microsomes at 1 uM; format: ADME, Microsome; details: read-out: CLH
P2X purinoceptor 3 = target: T6, P2X purinoceptor 3 (Homo sapiens, UniProt P56373); experiment: Inhibition of human P2X3 assessed as reduction in agonist-induced intracellular Ca2+ concentration pre-incubated for 30 mins before agonist addition by calcium 5 dye based fluorescence assay; format: cell-based
T6 sequence (P56373 whole entry): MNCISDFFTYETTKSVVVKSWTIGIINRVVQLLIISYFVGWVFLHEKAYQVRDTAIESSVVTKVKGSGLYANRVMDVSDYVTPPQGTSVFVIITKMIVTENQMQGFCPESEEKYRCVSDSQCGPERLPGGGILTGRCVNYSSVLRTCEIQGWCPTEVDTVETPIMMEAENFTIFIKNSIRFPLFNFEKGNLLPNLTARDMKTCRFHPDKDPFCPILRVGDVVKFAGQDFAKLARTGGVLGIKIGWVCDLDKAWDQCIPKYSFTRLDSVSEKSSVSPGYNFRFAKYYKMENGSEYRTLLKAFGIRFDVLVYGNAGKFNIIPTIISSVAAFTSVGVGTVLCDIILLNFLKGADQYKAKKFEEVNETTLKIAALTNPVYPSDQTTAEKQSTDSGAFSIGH

Cytochrome P450 2C19 [20] = target: T4, Cytochrome P450 2C19; experiment: Inhibition of recombinant human CYP2C19 at 1 uM; format: ADME; details: recombinant enzyme
Cytochrome P450 3A4 [21] = target: T5, Cytochrome P450 3A4; experiment: Inhibition of recombinant human CYP3A4 at 100 nM; format: ADME; details: recombinant enzyme, 0.1 µM

In the case of `CNC(=O)O[C@@H](CC(C)C)c1nc([C@H]2OC(=O)/C=C/C/C(C)=C/[C@@H](O)[C@@H](C)\C=C(C)/C=C(C)\C=C\[C@@H](O)[C@H](C)[C@H](OC)/C(C)=C/C=C/[C@@H]2C)cs1` [ARCHAZOLID B], the microsomal CLint at 1 µM [1] is reported as 533 µL/min/mg, the metabolised at 0.25 h, 1 µM [2] is reported as 100% and the half-life at 1 µM [3] is reported as 2.8 min. For the same compound, the inhibition [4] was “inactive”, the “inhibition (INH)” value (Cytochrome P450 2B6) was “Active” and the Ki (Adenosine receptor A3) was 1180 nM. The permeability [5] was “Impermeable”, the microsomal CLint at 1 µM [6] was 301 µL/min/mg and the inhibition [7] was “inactive”. For the same compound, the IC50 (Neutrophil elastase) was 316 nM, the inhibition [8] was “inactive” and the “inhibition (INH)” value (Cytochrome P450 2D6) was “Active”. The IC50 (cells) was 0.145 nM, the inhibition [9] was “inactive” and the solubility kinetic [10] was 1.6 µM (≈ 1.16 µg/mL). The metabolised at 0.25 h, 1 µM [11] was 100%, the half-life at 1 µM [12] was 2.6 min and the “inhibition (INH)” value (Cytochrome P450 1A2) was “Active”. The half-life at 1 µM [13] was 4.6 min, the “inhibition (INH)” value (Cytochrome P450 2C9 [14]) was “Active” and the “inhibition (INH)” value (Cytochrome P450 2C19 [15]) was “Active”. For the same compound, the inhibition (Trypsin (Homo sapiens)) was “inactive”, the metabolised at 0.25 h, 1 µM [16] was 100% and the “inhibition (INH)” value (Cytochrome P450 3A4 [17]) was “Active”. For the same compound, the “inhibition (INH)” value (Cytochrome P450 2C9 [18]) was “Active”, the microsomal CLint at 1 µM [19] was 495 µL/min/mg and the IC50 (P2X purinoceptor 3) was 353 nM. For the same compound, the “inhibition (INH)” value (Cytochrome P450 2C19 [20]) was “Active” and the “inhibition (INH)” value (Cytochrome P450 3A4 [21]) was “Active”.
